Measurements taken from paper PMC7277860, “Viridistratins A−C, Antimicrobial and Cytotoxic Benzo[j]fluoranthenes from Stromata of Annulohypoxylon viridistratum (Hypoxylaceae, Ascomycota)” (Biomolecules, 2020).

How the values were obtained:
[1] = Cytotoxicity assay (MTT); assay type: cell-based
Description: (§1) Compounds 1−5 were dissolved as described in the previous section. The cytotoxicity assay was initially performed against the cell lines L929 (mouse fibroblasts), as well as KB 3.1 (human papillomavirus-related endocervical adenocarcinoma), as described previously. A detailed protocol, as well as sources of the cell lines, is given in the Supporting Information.
(§2) After incubating the cell lines with a serial dilution of the test compounds (final range: 37 to 0.6 × 10^−3 µg/mL) for five days, the cells were dyed using 3-(4,5-dimethyl-2-thiazolyl)-2,5-diphenyl-2H-tetrazolium bromide (MTT), which is only converted to its purple formazan derivative by living cells. Then, the intensity of the purple derivative in relation to cells without additive (set to 100% viability) for each concentration of a test compound was quantified. For this, the absorption at 595 nm was measured using a microplate reader to calculate the percentage of cell viability. From this, the half-maximum inhibitory concentration (IC50, in µM) was calculated.
(§3) Protocol: Cytotoxicity Assay
(§4) The ass ay w as co nducted i n 9 6-well flat-bottom mi crotiter plates using the parameters summarised i n Tabl e S 2 and as described in [S2].
(§5) Cell lines L929 and KB 3.1 were incubated at 37 °C under 10 % CO2 in Gibco™ DMEM medium (Thermo Fisher Scientific, Waltham, MA, USA) supplemented with 10 % FBS. A microtiter plate was filled with 120 µL of this suspension (50,000/mL) in each well.
(§6) Seperately, another microtiter plate was filled with 100 µL of growth medium in each well. Then, 50 µL of the test compound sol utions (1 mg/mL) were given to wells of the first column in two replicates (one compound per row). C ell s wi thout addi ti ves, Me O H, and MeOH: DMSO 9+1 were used as negative controls. Starting from the first column, 50 µL of the solutions were gradually transferred to the ne xt col umn, the conte nts thoroughl y mi xed, and 50 µ L transferred to the following column. This created a serial dilution of the test compounds r anging from 333 µg/mL to 1.9 ×10−3 µg/mL. The remai ni ng 50 µL after column twelve were discarded. From this microtiter plate, 60 µL of the sol utions from 111 µg/ mL to 1.9×10−3 µg/mL were given to the first plate containing 120 µL of the cel l suspens i ons (i.e. the hi ghest concentrati on 333 µg/mL was not used). T his resulted i n fi nal compound concent rati ons rangi ng from […]
(§7) After 5 days of incubation under the aforeme ntioned i ncubati on condi ti ons, the half maximum inhibitory concentrati ons (IC 50) were determined using a colorimetric tetrazolium dye MTT assay [S3].
(§8) For this, 20 µL of a 5 mg/mL solution of 3-( 4 ,5 -dimethyl-2-thi azo l yl)-2 ,5 -di phenyl -2H-tetrazolium bromide (MTT) w ere added to each well and incubated for two hours at 37 °C. Then, the microtiter plate was centrifuged (3,000 r p m, 5 mi n) and the supernat ant remo ved by ho l di ng the pl ate upsi de-do wn and gentle shaking. Afterwards, the wells were washed using 100 µL of phosph ate buffered saline (PBS).
(§9) The plate was again centrifuged and the supernatant removed as described before. Then, 100 µL of an isopropanol:HCl solution (1L i sopropanol+4 mL HCl 37 % w/v) were added to the wells. After i ncubati ng fo r 10 mi n at ambi ent te mperature, the a bso r pti o n of the well s at 595 nm was measured wi th an I nfi ni te ® 200 Pro microplate reader (TECAN, Männedorf, Schweiz).
(§10) The absorption values of the cells without additives were averaged and set to 100 % cell viability.
(§11) Then, t he me ans of absorption of the two compound replicates were set in relation to the blank media.
These percentage values were plotted a gainst the concentration range (37 µg/mL to 0.6×10 −3 µg/mL).
The IC50 val ue w as read from the plot ( i n µg/mL) and the uni ts conversed to µM.
If effects were observed wi th cell lines L929 and KB 3.1 (IC50 < 50 µM), the other cell lines were tested using the same protocol.
Table S2: Cytotoxicity assay experiment parameters cell line type No. growth medium […]

[2] = Cytotoxicity assay (MTT); assay type: cell-based, human
Description: as §1, §2
If an inhibition of cell viability with an IC50 < 50 µM was observed, further cell lines were subjected to the test compounds: PC-3 (human prostate adenocarcinoma), SK-OV-3 (human ovary adenocarcinoma), MCF-7 (human breast adenocarcinoma), A431 (human squamous carcinoma) and A549 (human lung carcinoma).
as §3, §4, §5, §6, §7, §8, §9, §10, §11
These percentage values were plotted a gainst the concentration range (37 µg/mL to 0.6×10 −3 µg/mL). […]

[3] = test system: Rhodotorula glutinis; assay: MIC serial dilution assay; assay type: cell-based; conditions: Rhodotorula glutinis DSM10134; overnight, 30 °C; reference nystatin 1 mg/mL
Description: (§12) Compounds 1, 2, 4 and 5 were dissolved in MeOH (1 mg/mL) for the antimicrobial activity assay, while compound 3 was dissolved in MeOH: DMSO 9+1 (1 mg/mL). The solvents were also used as negative controls.
(§13) Minimum inhibitory concentrations (MIC) were determined in a serial dilution assay, as described previously; a detailed protocol can be found in the Supporting Information. The compounds (1 mg/mL) were diluted to a range of 66.7 to 0.52 µg/mL and incubated with the test organisms overnight. Inhibition of growth was visually evaluated the next day: the MIC is defined as the lowest concentration of the test compound where no growth of the test organism was observed. Various test organisms of fungal and bacterial origin were tested to cover a broad range of microorganisms. This selection is also being used as a standard test panel in our attempts to discover new anti-infectives, as it represents a broad spectrum of pathogens of clinical interest, as well as sensitive indicator strains (bacteria: Bacillus subtilis, Staphylococcus aureus, Micrococcus luteus, Chromobacterium violaceum, Escherichia coli and Pseudomonas aeruginosa; mycobacteria: Mycolicibacterium smegmatis and fungi: Candida albicans, Schizosaccharomyces pombe, Mucor hiemalis, Pichia anomala and Rhodotorula glutinis).
(§14) Protocol: Antimicrobial Activi ty Assay
(§15) The assay was conducted as a minimum inhi bitory concentration (MIC) assay in 96-well ro und-bottom mi crotiter pl ate s usi ng the p ar ameter s su mm ari zed i n T a bl e S 1 and as already described i n [S1].
(§16) Stocks of the test organi sms were generated by growing the organisms o ver ni ght i n 50 mL shaki ng fl asks fi ll ed wi th 25 mL of the growth medi um at 140 rpm (for media and temperatures see Table S1). If the organisms were well grown the ne xt day, which was checked by occurrence of an optical density (OD)>30 of the suspension (OD600 nm for bacteria, OD548 nm for fungi and M. smegma tis) , aliquots of these were stored i n 1.5 mL reaction tube s in a freezer at −80 °C for up to 12 mo nths . Upon use, aliquots were unth awed and the OD of the suspension measured and adjusted by diluting with the respective growth medi um. OD600 nm w as adj usted to 0.01 and OD548 nm to 0.1.
(§17) Subse que ntly, 150 µL o f the adjusted suspensions were added to all wells of a 96-wel l microtiter pl ate (one test organi sm per plate). In row A, additional 130 µL of suspensions plus 20 µL of the test compounds (1 mg/mL) and the controls (one compound/column) were added. MeOH as well as MeOH:DMSO 9+1 were used as negative controls, while different positive controls (refer ences) were used for the test organisms (see Tabl e S1). Then, starti ng from row A, 150 µ L of the suspension were transferred to the next row, the contents thoroughly mixed, and 150 µ L transferred to the following row.
(§18) The remaining 150 µ L after row H were discarded. […]
(§19) compounds, ranging from 66.7 µg/mL i n row A to 0.52 µg/mL i n row H.
(§20) The microtiter plates were then incubated overnight o n a microplate shaker at 800 rpm at 30 or 37 °C (see Table S1) and were visually evaluated the next day. The MIC is defined as the lowest concentration were no growth of the test organism was o bserved. A lower MIC thus corresponds to a higher antimicrobial activity of the test compound.
(§21) Table S1: MIC assay ex per i men t parameters test organism strain No. growth incubation positive control (reference) […]
(§22) Rhodotorula glutinis DSM10134 MYC 3 30 nyst ati n 1.0 mg/mL
(§23) 1 MHB: Müller-Hinton Broth (SN X927.1, Ca r l Roth GmbH, Karlsruhe, Germany) 2 7H9+ADC: Middlebrook 7H9 Broth Base + Middlebrook ADC Growth Supplement (SN M0678+M0553, Merck, Darmstadt, Germany)
(§24) 3 MYC: 1 % w/v, bacto peptone, 1% w/v yeast extract, 2 % w /v glycerol, pH 6.3 [S1] Helaly, S.E.; Ashrafi, S.; Teponno, R.B.; Bernecker, S.; Dababat, A.A.; Maier, W.; Stadler, M.
(§25) Nematicidal Cyclic Lipodepsipeptides and a Xanthocillin Derivative from a Phaeosphariaceous […]

[4] = test system: Candida albicans; assay: MIC serial dilution assay; assay type: cell-based; conditions: Candida albicans DSM1665; overnight, 30 °C; reference nystatin 1 mg/mL
Description: as §12, §13, §14, §15, §16, §17, §18, §19, §20, §21
Candida albicans DSM1665 MYC 3 30 nyst ati n 1.0 mg/mL […]
as §22, §23, §24, §25

[5] = test system: Schizosaccharomyces pombe; assay: MIC serial dilution assay; assay type: cell-based; conditions: Schizosaccharomyces pombe DSM70572; overnight, 30 °C; reference nystatin 1 mg/mL
Description: as §12, §13, §14, §15, §16, §17, §18, §19, §20, §21
Schizosaccharomyces DSM70572 MYC 3 30 nyst ati n 1.0 mg/mL […]
as §22, §23, §24, §25

[6] = test system: Mucor hiemalis; assay: MIC serial dilution assay; assay type: cell-based; conditions: Mucor hiemalis DSM2656; overnight, 30 °C; reference nystatin 1 mg/mL
Description: as §12, §13, §14, §15, §16, §17, §18, §19, §20, §21
Mucor hiemalis DSM2656 MYC 3 30 nyst ati n 1.0 mg/mL […]
as §22, §23, §24, §25

[7] = test system: Pichia anomala; assay: MIC serial dilution assay; assay type: cell-based; conditions: Pichia anomala DSM6766; overnight, 30 °C; reference nystatin 1 mg/mL
Description: as §12, §13, §14, §15, §16, §17, §18, §19, §20, §21
Pichia anomala DSM6766 MYC 3 30 nyst ati n 1.0 mg/mL
as §22, §23, §24, §25

Row | SMILES | IC50 at 5 days ([1]; KB 3.1 human endocervical adenocarcinoma) [nM] | IC50 at 5 days ([1]; L929 mouse fibroblasts) [nM] | IC50 at 5 days ([2]; A431 human squamous AC) [nM] | IC50 at 5 days ([2]; A549 human lung carcinoma) [nM] | IC50 at 5 days ([2]; MCF-7 human breast AC) [nM] | IC50 at 5 days ([2]; PC-3 human prostate AC) [nM] | IC50 at 5 days ([2]; SK-OV-3 human ovary AC) [nM] | Minimum Inhibitory Concentration (MIC) [3] | Minimum Inhibitory Concentration (MIC) [4] | Minimum Inhibitory Concentration (MIC) [5] | Minimum Inhibitory Concentration (MIC) [6] | Minimum Inhibitory Concentration (MIC) [7]
1 | C/C(=C\c1csc(C)n1)[C@@H]1C[C@@H]2O[C@]2(C)CCC[C@H](C)[C@H](O)[C@@H](C)C(=O)C(C)(C)[C@@H](O)CC(=O)O1 [epothilone B, reference compound] | 0.79 | 0.06 | 0.05 | 0.08 | 0.12 | 0.08 | 0.34 | – | – | – | – | –
2 | C[C@@H]1[C@H](O)[C@@H](C)/C=C/C=C/CC/C=C/C=C/C=C/C=C/C(O[C@H]2O[C@H](C)[C@@H](O)[C@H](N)[C@@H]2O)CC2O[C@](O)(CC(O)C(O)CCC(O)CC(O)CC(O)CC(=O)O[C@H]1C)CC(O)C2C(=O)O (stereo partly drawn) [nystatin, reference compound] | – | – | – | – | – | – | – | 16.7 ^5 µg/mL | 66.7 ^5 µg/mL | 33.3 ^5 µg/mL | 66.7 ^5 µg/mL | 66.7 ^5 µg/mL
